From patent US11548888B2, “KRas G12C inhibitors” (Mirati Therapeutics, Inc., priority 2019, dated 2023) come the findings set out here.

As a reminder, the IC50 is the concentration at which inhibition is half-maximal. A high value points to weaker potency in that assay.

T1 sequence (P01116 1-188 isoform P01116-2 G12C): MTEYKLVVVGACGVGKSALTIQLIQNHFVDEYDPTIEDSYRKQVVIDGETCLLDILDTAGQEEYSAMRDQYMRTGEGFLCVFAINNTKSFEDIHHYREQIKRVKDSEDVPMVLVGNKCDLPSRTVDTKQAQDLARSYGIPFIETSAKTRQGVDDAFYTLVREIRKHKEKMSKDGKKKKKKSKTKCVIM

This test addresses T1, KRas G12C (Homo sapiens, UniProt P01116, G12C).
T1 construct: NCI-H358 cells (ATCC CRL-5807) express KRas G12C
The test can be described thus: Inhibition of KRas G12C-dependent cell growth: Phospho-ERK in NCI-H358 cells. The format is cell-based. The conditions noted are these: NCI-H358 cells expressing KRas G12C; Phospho-ERK (Thr202/Tyr204) normalized to GAPDH; 3 hours compound; 4 parameter fit. Put shortly:
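Phospho-ERK read-out in KRas G12C-expressing NCI-H358 cells after 3 h compound treatment (final DMSO 0.5%), by in-cell infrared immunodetection. Signal normalized to GAPDH and to DMSO controls. 4-parameter curve fit gave IC50.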
The compound `C#Cc1cccc2cc(O)cc(-c3ncc4c(N5C[C@@H]6[C@H]5CCN6C(=O)C=C)nc(OCC56CCCN5CCC6)nc4c3F)c12` [Example 293, 1-((1R, 5R)-6-(7-(8-ethynyl-3-hydroxynaphthalen-1-yl)-8-fluoro-2-((tetrahydro-1H-pyrrolizin-7a(5H)-yl)methoxy)pyrido[4,3-d]pyrimidin-4-yl)-2,6-diazabicyclo[3.2.0]heptan-2-yl)prop-2-en-1-one] came in with an IC50 of 65 nM.
For `C=C(F)C(=O)N1CCN(c2nc(OC[C@@H]3CCCN3C)nc3c(F)c(-c4cccc5cccc(C)c45)ncc23)C[C@@H]1CC#N` [Example 11, 2-[(2S)-4-[8-fluoro-7-(8-methyl-1-naphthyl)-2-[[(2S)-1-methylpyrrolidin-2-yl]methoxy]pyrido[4,3-d]pyrimidin-4-yl]-1-(2-fluoroprop-2-enoyl)piperazin-2-yl]acetonitrile] the value was 84 nM.
The figure for `C=CC(=O)N1CC[C@@H]2[C@H]1CN2c1nc(N(C)CC)nc2c(F)c(-c3cccc4ccc(F)c(Cl)c34)ncc12` [Example 274] is 10000 nM; for `C=CC(=O)N1CC[C@@H]2[C@H]1CN2c1nc(N2CC(N(C)C)C2)nc2c(F)c(-c3cccc4ccc(F)c(Cl)c34)ncc12` [Example 273] it is 16 nM.
For `C=C(F)C(=O)N1CCN(c2nc(OC[C@@H]3CCCN3CCF)nc3c(F)c(-c4cccc5ccc(F)c(Cl)c45)ncc23)C[C@@H]1CC#N` [Example 182] the value was 27 nM; for `C=C(F)C(=O)N1CCN(c2nc(OCCNC(=O)C(C)C)nc3c(F)c(-c4cccc5ccc(F)c(Cl)c45)ncc23)C[C@@H]1CC#N` [Example 230], 1850 nM; for `C=CC(=O)N1CCN(c2ncnc3c(F)c(-c4cccc5ccccc45)ncc23)CC1` [Example 223], 10000 nM.
On to `C=CC(=O)N1C2CCC1CN(c1nc(OC[C@@H]3CCCN3C)nc3c(F)c(-c4cc(O)cc5ccccc45)ncc13)C2` [Example 9, 1-[3-[8-fluoro-7-(3-hydroxy-1-naphthyl)-2-[[(2S)-1-methylpyrrolidin-2-yl]methoxy]pyrido[4,3-d]pyrimidin-4-yl]-3,8-diazabicyclo[3.2.1]octan-8-yl]prop-2-en-1-one], for which the IC50 stood at 142 nM.
The figure for `C=CC(=O)N1CC[C@@H]2[C@H]1CN2c1nc(OC)nc2c(F)c(-c3cccc4ccc(F)c(Cl)c34)ncc12` [Example 267] is 330 nM; for `C=CC(=O)N1CC[C@@H]2[C@H]1CN2c1ncnc2c(F)c(-c3cccc4ccc(F)c(C)c34)ncc12` [Example 285] it is 782 nM.
For `C#Cc1c(F)ccc2cccc(-c3ncc4c(N5C[C@@H]6[C@H]5CCN6C(=O)/C=C/C(F)F)ncnc4c3F)c12` [Example 300, (E)-1-((1R,5R)-6-(7-(8-ethynyl-7-fluoronaphthalen-1-yl)-8-fluoropyrido[4,3-d]pyrimidin-4-yl)-2,6-diazabicyclo[3.2.0]heptan-2-yl)-4,4-difluorobut-2-en-1-one] the value was 235 nM; for `C=CC(=O)N1CC[C@@H]2[C@H]1CN2c1ncnc2c(F)c(-c3cccc(Cl)c3C3CC3)ncc12` [Example 277], 553 nM.
For `C=C(F)C(=O)N1CCN(c2nc(OCC3CCC4CCCN43)nc3c(F)c(-c4cccc5ccc(F)c(Cl)c45)ncc23)C[C@@H]1CC#N` (some centres unmarked) [Example 174] the value was 20 nM.
`C=CC(=O)N1CC[C@@H]2[C@H]1CN2c1nc(N(C)C)nc2c(F)c(-c3cccc4ccc(F)c(Cl)c34)ncc12` [Example 269]: the IC50 is 4490 nM.
Compound `C=C(F)C(=O)N1CCN(c2nc(Oc3cccc4c3CCN(C)C4)nc3c(F)c(-c4cccc5ccc(F)c(Cl)c45)ncc23)C[C@@H]1CC#N` [Example 207] yielded an IC50 of 6850 nM.
Take `C=C(F)C(=O)N1CCN(c2nc(N3CC(N(C)C)C3)nc3c(F)c(-c4cccc5ccc(F)c(Cl)c45)ncc23)C[C@@H]1CC#N` [Example 170]: 19 nM corresponded to half-maximal inhibition (IC50).
With `C=CC(=O)N1CCC12CN(c1ncnc3c(F)c(-c4cccc5ccc(F)c(Cl)c45)ncc13)C2` [Example 246, 1-(6-(7-(8-chloro-7-fluoronaphthalen-1-yl)-8-fluoropyrido[4,3-d]pyrimidin-4-yl)-1,6-diazaspiro[3.3]heptan-1-yl)prop-2-en-1-one], the IC50 was determined as 6470 nM.
The figure for `C=CC(=O)N1CCN(c2nc(OC[C@@H]3CCCN3C)nc3c(F)c(-c4cccc5cccc(Cl)c45)ncc23)[C@@H](C)C1` [Example 69] is 58 nM.
The figure for `C=CC(=O)N1CCN(c2ncnc3c(F)c(-c4cccc(Cl)c4C4CC4)ncc23)C[C@@H]1CC#N` [Example 241] is 111 nM.
`C=C(F)C(=O)N1CCN(c2nc(O[C@@H]3CO[C@H]4[C@@H]3OC[C@H]4O)nc3c(F)c(-c4cccc5ccc(F)c(Cl)c45)ncc23)C[C@@H]1CC#N` [Example 240]: the IC50 turned out to be 10000 nM.
The figure for `CC(C)(C)N1CCC1COc1nc(N2CCN(C(=O)/C=C/CF)[C@@H](CC#N)C2)c2cnc(-c3cccc4cccc(Cl)c34)c(F)c2n1` (some centres unmarked) [Example 66] is 12 nM; for `C=CC(=O)N1CC[C@@H]2[C@H]1CN2c1ncnc2c(F)c(-c3c(O)ccc4ccccc34)ncc12` [Example 281] it is 2340 nM.
For `N#CC[C@H]1CN(c2ncnc3c(F)c(-c4cccc5ccc(F)c(Cl)c45)ncc23)CCN1C(=O)/C=C/C(F)F` [Example 115] the value was 76 nM.
Take `C=CC(=O)N1C2CCC1CN(c1ncnc3c(F)c(-c4cccc5ccc(F)c(Cl)c45)ncc13)C2` [Example 131]: half-maximal inhibition (IC50) required 10000 nM.
In turn, `C=C(F)C(=O)N1CCN(c2nc(OC[C@@H]3CN(C)C[C@@H]3F)nc3c(F)c(-c4cccc5ccc(F)c(Cl)c45)ncc23)C[C@@H]1CC#N` [Example 194] showed a half-inhibitory concentration (IC50) of 64 nM.
For `C=C(F)C(=O)N1CCN(c2nc(OC[C@@H]3CC(F)(F)CN3C(C)C)nc3c(F)c(-c4cccc5ccc(F)c(Cl)c45)ncc23)C[C@@H]1CC#N` [Example 118] the value was 329 nM; for `C=CC(=O)N1CCN(c2nc(C3CC3)nc3c(F)c(-c4cccc5ccc(F)c(Cl)c45)ncc23)C[C@@H]1CC#N` [Example 219, (S)-2-(1-acryloyl-4-(7-(8-chloro-7-fluoronaphthalen-1-yl)-2-cyclopropyl-8-fluoropyrido[4,3-d]pyrimidin-4-yl)piperazin-2-yl)acetonitrile], 538 nM; for `C=C(F)C(=O)N1CCN(c2nc(OCC3(C)C(OC)CN3C)nc3c(F)c(-c4cccc5ccc(F)c(Cl)c45)ncc23)C[C@@H]1CC#N` (some centres unmarked) [Example 208], 4 nM.
In turn, `CN1CC(F)(F)C[C@H]1COc1nc(N2CCN(C(=O)/C=C/CF)[C@@H](CC#N)C2)c2cnc(-c3cccc4cccc(Cl)c34)c(F)c2n1` [Example 25, 2-((S)-4-(7-(8-chloronaphthalen-1-yl)-2-(((S)-4,4-difluoro-1-methylpyrrolidin-2-yl)methoxy)-8-fluoropyrido[4,3-d]pyrimidin-4-yl)-1-((E)-4-fluorobut-2-enoyl)piperazin-2-yl)acetonitrile] showed an IC50 of 13 nM.
The figure for `COC/C=C/C(=O)N1CC[C@@H]2[C@H]1CN2c1ncnc2c(F)c(-c3cccc4ccc(F)c(Cl)c34)ncc12` [Example 259] is 9000 nM.
For `C=C(F)C(=O)N1CCN(c2nc(OC[C@@H]3CCCN3C)nc3c(O)c(-c4cccc5cccc(C)c45)ncc23)C[C@@H]1CC#N` [Example 211, 2-((S)-1-(2-fluoroacryloyl)-4-(8-hydroxy-7-(8-methylnaphthalen-1-yl)-2-(((S)-1-methylpyrrolidin-2-yl)methoxy)pyrido[4,3-d]pyrimidin-4-yl)piperazin-2-yl)acetonitrile] the value was 2 nM; for `COC/C=C/C(=O)N1CCN(c2nc(OC[C@@H]3CCCN3C)nc3c(F)c(-c4cccc5cccc(C)c45)ncc23)C[C@@H]1CC#N` [Example 61, 2-[(2S)-4-[8-fluoro-7-(8-methyl-1-naphthyl)-2-[[(2S)-1-methylpyrrolidin-2-yl]methoxy]pyrido[4,3-d]pyrimidin-4-yl]-1-[(E)-4-methoxybut-2-enoyl]piperazin-2-yl]acetonitrile], 70 nM.
As for `C=C(F)C(=O)N1CCN(c2nc(OCC3CCN3CC)nc3c(F)c(-c4cccc5ccc(F)c(Cl)c45)ncc23)C[C@@H]1CC#N` (some centres unmarked) [Example 139], 37 nM corresponded to half-maximal inhibition (IC50).
For `C=C(F)C(=O)N1CCN(c2nc(OC[C@@H]3CCCN3C)nc3c(F)c(-c4cccc5cccc(Cl)c45)ncc23)[C@@H](C)C1` [Example 75] the value was 1190 nM.
Consider `C=CC(=O)N1CCN(c2ncnc3cc(-c4cccc5cccc(C)c45)ncc23)C[C@@H]1CC#N` [Example 40, (S)-2-(1-acryloyl-4-(7-(8-methylnaphthalen-1-yl)pyrido[4,3-d]pyrimidin-4-yl)piperazin-2-yl)acetonitrile], for which half-maximal inhibition (IC50) was put at 496 nM.
As to `C=CC(=O)N1CCN(c2nc(C(F)(F)F)nc3c(F)c(-c4cccc5ccc(F)c(Cl)c45)ncc23)C[C@@H]1CC#N` [Example 199], the IC50 stood at 3400 nM.
The figure for `C=CC(=O)N1CCN(c2ncnc3c(F)c(-c4cccc5cc(F)ccc45)ncc23)CC1` [Example 258] is 10000 nM; for `C=CC(=O)N1CC[C@@H]2[C@H]1CN2c1nc(OCC23CCCN2CCC3)nc2c(F)c(-c3cccc4ccc(F)c(Cl)c34)ncc12` [Example 227] it is 5 nM; for `C=CC(=O)N1CCN(c2ncnc3c(F)c(-c4cccc5cc(Cl)ccc45)ncc23)CC1` [Example 257] it is 10000 nM.
For `C=CC(=O)N1CC[C@@H]2[C@H]1CN2c1nc(OCC)nc2c(F)c(-c3cccc4ccc(F)c(Cl)c34)ncc12` [Example 268] the value was 1130 nM; for `C=C(F)C(=O)N1CCN(c2nc(OC[C@@H]3CCCN3C3CCC3)nc3c(F)c(-c4cccc5ccc(F)c(Cl)c45)ncc23)C[C@@H]1CC#N` [Example 140], 14 nM.
